The results in this text go back to patent US20240262842A1, “SMALL MOLECULE INHIBITORS OF KRAS G12C MUTANT” (Merck Sharp & Dohme LLC, priority 2021, published 2024).

Where two headings read alike, the source gives them in different places.

Experiment [1] addresses T1, interaction between GMPPNP-bound recombinant K-Ras4B G12C mutant protein and cRAF RAS-binding domain (cRAF-RBD) (Homo sapiens, UniProt P01116, G12C).
T1 construct: His-tag (N)
Put plainly: Inhibitory activity on interaction between KRAS G12C and cRAF (Alpha technology). Summed up: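 His-tagged K-Ras4B G12C (aa 1-169), GMPPNP-loaded, preincubated with compound 1 h at 25° C in pH 7.5 Tris buffer with MgCl2, TCEP, Tween 20. cRAF-RBD (aa 50-132) and Alpha reagents then added for 1.5 h; Alpha signal normalised to DMSO (0%) and GDP-bound KRAS (100%); IC50 from dose titration.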

For the next experiment, the system named is MIA PaCa-2 cells. The experiment can be described thus: Growth inhibition activity on KRAS-G12C mutant cell line (CellTiter-Glo 3D). The experiment is classed as cell-based, human. The conditions noted are these: MIA PaCa-2, 3-day culture with compound. The procedure, abridged:
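MIA PaCa-2 cells in RPMI1640 with 10% FBS, U-bottom wells, cultured 1 day before compound (0.2% DMSO final), then 3 days at 37 °C, 5% CO2. Viability by CellTiter-Glo 3D luminescence; growth inhibition versus untreated wells gives IC50 (nM).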
For orientation: ATP-based viability assays read luminescence as a measure of living cells.

The mark [2] stands for this setting: GMPPNP-bound KRAS G12C incubated with compound 25° C. 1 hour, Table 2-1, read-out: IC50.
Setting [3] is: Homo sapiens, MIA PaCa-2, 72 h, Table 3-1.
The mark [4] stands for this setting: IC50, GMPPNP-bound KRAS G12C incubated with compound 25° C. 1 hour, Table 2.
The mark [5] stands for this setting: Homo sapiens, MIA PaCa-2, 72 h, Table 3.

T1 sequence (P01116 with tags, fused parts or gaps isoform P01116-2 G12C): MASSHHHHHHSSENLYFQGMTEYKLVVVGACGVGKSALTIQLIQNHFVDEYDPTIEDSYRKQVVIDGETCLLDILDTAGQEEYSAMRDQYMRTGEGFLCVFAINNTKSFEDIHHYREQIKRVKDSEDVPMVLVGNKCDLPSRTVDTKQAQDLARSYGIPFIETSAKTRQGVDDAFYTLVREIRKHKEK

What is called IC50 is the concentration needed to halve the response being measured. For the compound `COCc1nc2c3c(c(OC)cc2n1C)-c1cccn2c(C(=O)c4cc(F)c(NC(=O)/C=C/CN5CCCC5)c(F)c4)cc(c12)CCN3C` (single isomer, unassigned) [Example 188, (E)-N-(2,6-difluoro-4-(7-methoxy-10-(methoxy-methyl)-9,12-dimethyl-9,12,13,14-tetrahydro-imidazo[4″,5″:5′,6′]benzo-[1,2:2,3]azocino[4,5,6-hi]indolizine-2-carbonyl)-phenyl)-4-(pyrrolidin-1-yl)but-2-enamide], the IC50 in experiment [1] (setting [2]) turned out to be 72.5 nM; in the experiment on MIA PaCa-2 cells (setting [3]), 39.7 nM.

Regarding `CN1CCc2cc(C(=O)c3cc(F)c(NC(=O)/C=C/CN4CC[C@H]4CO)c(F)c3)n3cccc(c23)-c2c(C(F)(F)F)cc3c(ncn3C)c21` (single isomer, unassigned) [Example 199], the IC50 in experiment [1] (setting [2]) stood at 10.1 nM; with MIA PaCa-2 cells (setting [3]), 3.67 nM.

Consider `COCCn1c(C)nc2c3c(c(OC)cc21)-c1cccn2c(C(=O)c4cc(F)c(NC(=O)/C=C/CNC5(C)CC5)c(F)c4)cc(c12)CCN3C` (single isomer, unassigned) [Example 200, (E)-N-(2,6-difluoro-4-(7-methoxy-9-(2-methoxyethyl)-10,12-dimethyl-9,12,13,14-tetrahydroimidazo[4″,5″:5′,6′]benzo[1′,2′:2,3]azocino[4,5,6-hi]indolizine-2-carbonyl)phenyl)-4-((1-methylcyclopropyl)amino)but-2-enamide], for which the half-maximal inhibitory concentration (IC50) in experiment [1] (setting [2]) came out at 13.7 nM; in the experiment with MIA PaCa-2 cells (setting [3]) it was 4.62 nM.

Turning to `COCCn1c(C)nc2c3c(c(OC)cc21)-c1cccn2c(C(=O)c4cc(F)c(NC(=O)/C=C/CN[C@H]5CCOC5)c(F)c4)cc(c12)CCN3C` (single isomer, unassigned) [Example 201], the IC50 in experiment [1] (setting [2]) came out at 17.6 nM; in the experiment with MIA PaCa-2 cells (setting [3]) it was 5.83 nM.

Take `COCCn1cnc2c3c(c(OC)cc21)-c1cccn2c(C(=O)c4cc(F)c(NC(=O)/C=C/CNC5(C)CC5)c(F)c4)cc(c12)CCN3C` (single isomer, unassigned) [Example 202, (E)-N-(2,6-difluoro-4-(7-methoxy-9-(2-methoxy-ethyl)-12-methyl-9,12,13,14-tetrahydro-imidazo[4″,5″:5′,6′]benzo-[1′,2′:2,3]azocino[4,5,6-hi]indolizine-2-carbonyl)-phenyl)-4-((1-methyl-cyclopropyl)amino)but-2-enamide]: the results for the IC50 (in experiment [1] (setting [2]); in the experiment with MIA PaCa-2 cells (setting [3])) were 13 nM and 10.2 nM, respectively.

On to `COCCn1cnc2c3c(c(OC)cc21)-c1cccn2c(C(=O)c4cc(F)c(NC(=O)/C=C/CN[C@H]5CCOC5)c(F)c4)cc(c12)CCN3C` (single isomer, unassigned) [Example 203], for which the half-inhibitory concentration (IC50) in experiment [1] (setting [2]) worked out at 20.4 nM; in the experiment with MIA PaCa-2 cells (setting [3]) it was 11 nM.

On to `CC(O)[C@]1(C)CCCN1C/C=C/C(=O)Nc1c(F)cc(C(=O)c2cc3c4c(cccn24)-c2c(C(F)(F)F)cc4c(ncn4C)c2N(C)CC3)cc1F` (single isomer, unassigned) [Example 204], for which the values for the 50% inhibitory concentration (IC50) (in experiment [1] (setting [2]); in the experiment on MIA PaCa-2 cells (Table 3-1)) were 36.4 nM and 118 nM, respectively.

Regarding `CC(O)[C@]1(C)CCCN1C/C=C/C(=O)Nc1c(F)cc(C(=O)c2cc3c4c(cccn24)-c2c(C(F)(F)F)cc4c(ncn4C)c2N(C)CC3)cc1F` (single isomer, unassigned) [Example 205], the concentration for half-maximal inhibition (IC50) in experiment [1] (setting [2]) is 29.5 nM; in the experiment on MIA PaCa-2 cells (Table 3-1) it was 8.55 nM.

On to `CN1CCc2cc(C(=O)c3cc(F)c(NC(=O)/C=C/CN4[C@@H]5CC[C@H]4[C@H](O)C5)c(F)c3)n3cccc(c23)-c2c(C(F)(F)F)cc3c(ncn3C)c21` (single isomer, unassigned) [Example 206], for which the figures for the IC50 (in experiment [1] (setting [2]); in the experiment on MIA PaCa-2 cells (setting [3])) were 15.4 nM and 10.3 nM, respectively.

In the case of `CN1CCc2cc(C(=O)c3cc(F)c(NC(=O)/C=C/CN4[C@@H]5CC[C@H]4[C@H](O)C5)c(F)c3)n3cccc(c23)-c2c(C(F)(F)F)cc3c(ncn3C)c21` (single isomer, unassigned) [Example 207], the IC50 was 26.9 nM in experiment [1] (setting [2]) and 11.2 nM with MIA PaCa-2 cells (Table 3-1).

`Cc1nnc2c3c(c(C(F)(F)F)cn12)-c1cccn2c(C(=O)c4cc(F)c(NC(=O)/C=C/CNC5(C)COC5)c(F)c4)cc(c12)CCN3C` (single isomer, unassigned) [Example 216, (E)-N-(4-(10,13-dimethyl-7-(trifluoromethyl)-14,15-dihydro-13H-[1,2,4]-triazolo[4″,3″:1′,2′]pyrido-[3′,4′:2,3]azocino[4,5,6-hi]indolizine-2-carbonyl)-2,6-difluorophenyl)-4-((3-methyloxetan-3-yl)-amino)but-2-enamide]: the figures for the IC50 (in experiment [1] (setting [2]); in the experiment on MIA PaCa-2 cells (setting [3])) were 57.6 nM and 23.3 nM, respectively.

For the compound `Cc1nnc2c3c(c(C(F)(F)F)cn12)-c1cccn2c(C(=O)c4cc(F)c(NC(=O)/C=C/CNC5(C)CC5)c(F)c4)cc(c12)CCN3C` (single isomer, unassigned) [Example 223, (E)-N-(4-(10,13-dimethyl-7-(trifluoromethyl)-14,15-dihydro-13H-[1,2,4]-triazolo[4″,3″:1′,2′]-pyrido[3′,4′:2,3]azocino-[4,5,6-hi]indolizine-2-carbonyl)-2,6-difluoro-phenyl)-4-((1-methyl-cyclopropyl)amino)but-2-enamide], the IC50 in experiment [1] (setting [2]) amounted to 20.1 nM; in the experiment with MIA PaCa-2 cells (setting [3]) it was 23.7 nM.

Take `COCc1nc2c3c(c(OC)cc2n1C)-c1cccn2c(C(=O)c4cc(F)c(NC(=O)/C=C/CN[C@H]5CCOC5)c(F)c4)c(C)c(c12)CCN3C` (single isomer, unassigned) [Example 231]: the concentration for half-maximal inhibition (IC50) amounted to 101 nM in experiment [1] (setting [2]) and 73.4 nM with MIA PaCa-2 cells (setting [3]).

For the compound `COc1cc2c(nc(C)n2C)c2c1-c1cc(F)cn3c(C(=O)c4cc(F)c(NC(=O)/C=C/CN[C@H]5CCOC5)c(F)c4)cc(c13)CCN2C` (single isomer, unassigned) [Example 237], the half-maximal inhibitory concentration (IC50) was found to be 11.4 nM in experiment [1] (setting [2]) and 2.77 nM in the experiment with MIA PaCa-2 cells (setting [3]).

For the compound `COc1cc2c(nc(C)n2C)c2c1-c1cc(F)cn3c(C(=O)c4cc(F)c(NC(=O)/C=C/CNC5(C)CC5)c(F)c4)cc(c13)CCN2C` (single isomer, unassigned) [Example 238], the values for the IC50 (in experiment [1] (setting [2]); with MIA PaCa-2 cells (setting [3])) were 8.76 nM and 2.7 nM, respectively.

For the compound `Cc1cnc2c3c(c(C(F)(F)F)cn12)-c1cccn2c(C(=O)c4cc(F)c(NC(=O)/C=C/CN[C@H]5CCOC5)c(F)c4)cc(c12)CCN3C` (single isomer, unassigned) [Example 242], the results for the IC50 (in experiment [1] (setting [2]); in the experiment on MIA PaCa-2 cells (setting [3])) were 17.8 nM and 16.7 nM, respectively.

For the compound `COCCn1c(COC)nc2c3c(c(OC)cc21)-c1cccn2c(C(=O)c4cc(F)c(NC(=O)/C=C/CNC5(C)CC5)c(F)c4)cc(c12)CCN3C` (single isomer, unassigned) [Example 244], the IC50 in experiment [1] (setting [2]) came out at 15.5 nM; in the experiment on MIA PaCa-2 cells (setting [3]), 10 nM.

Regarding `COCCn1c(COC)nc2c3c(c(OC)cc21)-c1cccn2c(C(=O)c4cc(F)c(NC(=O)/C=C/CN[C@H]5CCOC5)c(F)c4)cc(c12)CCN3C` (single isomer, unassigned) [Example 247], the IC50 in experiment [1] (setting [2]) came to 23.4 nM; in the experiment with MIA PaCa-2 cells (setting [3]) it was 28.5 nM.

On to `CO[C@H]1CC[C@H](NC/C=C/C(=O)Nc2c(F)cc(C(=O)c3cn4c5c(cccc35)-c3c(Cl)cccc3OCCCC4)cc2F)CC1` [Example 3, (E)-N-(4-(12-chloro-4,5,6,7-tetrahydrobenzo[2,3][1,6]oxazecino[4,5,6-hi]indole-1-carbonyl)-2,6-difluorophenyl)-4-(((1,4r)-4-methoxycyclohexyl)amino)but-2-enamide], for which the IC50 was determined as 2700 nM in experiment [1] (setting [4]) and 4400 nM with MIA PaCa-2 cells (setting [5]).

For `CO[C@H]1CC[C@H](NC/C=C/C(=O)Nc2c(F)cc(C(=O)c3cn4c5c(cccc35)-c3c(C)cccc3OCC4)cc2F)CC1` [Example 6, (E)-N-(2,6-difluoro-4-(10-methyl-4,5-dihydrobenzo[7,8][1,4]oxazocino[6,5,4-hi]indole-1-carbonyl)phenyl)-4-(((1r,4r)-4-methoxycyclohexyl)amino)but-2-enamide], the concentration for half-maximal inhibition (IC50) is 160 nM in experiment [1] (setting [4]) and 670 nM with MIA PaCa-2 cells (setting [5]).

For the compound `CO[C@H]1CC[C@H](NC/C=C/C(=O)Nc2c(F)cc(C(=O)c3cn4c5c(cccc35)-c3c(F)cccc3OCC4)cc2F)CC1` [Example 7], the IC50 in experiment [1] (setting [4]) worked out at 840 nM; in the experiment with MIA PaCa-2 cells (setting [5]) it was 1100 nM.

Regarding `CO[C@H]1CC[C@H](NC/C=C/C(=O)Nc2c(F)cc(C(=O)c3cn4c5c(cccc35)-c3c(Cl)cc(N5CCCC5=O)cc3OCC4)cc2F)CC1` [Example 8, (E)-N-(4-(10-chloro-8-(2-oxopyrrolidin-1-yl)-4,5-dihydrobenzo[7,8][1,4]oxazocino[6,5,4-hi]indole-1-carbonyl)-2,6-difluorophenyl)-4-(((1r,4t)-4-methoxycyclohexyl)amino)but-2-enamide], the half-inhibitory concentration (IC50) in experiment [1] (setting [4]) was found to be 150 nM; in the experiment on MIA PaCa-2 cells (setting [5]), 160 nM.

Turning to `CO[C@H]1CC[C@H](NC/C=C/C(=O)Nc2c(F)cc(C(=O)c3cn4c5c(cccc35)-c3c(ccc(C#N)c3Cl)OCC4)cc2F)CC1` [Example 9, (E)-N-(4-(10-chloro-9-cyano-4,5-dihydrobenzo[7,8][1:4]oxazocino[6,5,4-hi]indole-1-9 carbonyl)-2,6-difluorophenyl)-4-(((1,4r)-4-methoxycyclohexyl)amino)but-2-enamide], the IC50 in experiment [1] (setting [4]) is 1500 nM; in the experiment on MIA PaCa-2 cells (setting [5]) it was 760 nM.

For the compound `COc1cccc2c1-c1cccc3c(C(=O)c4cc(F)c(NC(=O)/C=C/CN[C@H]5CC[C@H](OC)CC5)c(F)c4)cn(c13)CCO2` [Example 10, (E)-N-(2,6-difluoro-4-(10-methoxy-4,5-dihydrobenzo[7,8][1,4]oxazocino[6,5,4-hi]indole-1-carbonyl)phenyl)-4-(((1,4r)-4-methoxycyclohexyl)amino)but-2-enamide], the half-inhibitory concentration (IC50) in experiment [1] (setting [4]) came out at 150 nM; with MIA PaCa-2 cells (setting [5]) it was 230 nM.
